# Source: patent US8642070B2, “Feed additive composition for ruminants, and feed containing the same, and method of fabricating such feed additive composition for ruminants” (Bio Science Co., Ltd., priority 2004, dated 2014)
# Test: Stability of the biologically active substance at the melting temperature of the spray melt blending liquid
# Assay type: physicochemical
# Settings: for Mean Content (%): liquid agitated 1 hour before injection
# Method: Next, stability of the biologically active substance was studied in order to determine optimum temperature for the spray melt blending liquid used in the granulation through injection. […] However, when kept warmed below 75° C., the content remains high. Based on this fact, in the case of a rumen bypass product with a biologically active substance, employing a thermally vulnerable vitamins such as a calcium pantothenate, such vitamins can be contained in the preparation without suffering from any damage when granulation through injection is carried out, limiting the temperature of spray melt blending liquid to less than 75° C.
Mean Content (%) (Melting Temperature 60 °C),Mean Content (%) (Melting Temperature 65 °C),Mean Content (%) (Melting Temperature 70 °C),Mean Content (%) (Melting Temperature 75 °C),Mean Content (%) (Melting Temperature 80 °C),"content estimated when kept warmed above 90° C. (kept warmed above 90° C., extrapolated from Table 4)",Compound
100.5,100.3,103.6,104.2,109.6,,CSCC[C@H](N)C(=O)O [Methionine]
98.6,96.9,97.1,94.5,71.5,below 50%,Calcium Pantothenate
99.5,98.2,100.3,101.2,102.0,,O=C(O)c1cccnc1 [Nicotinic Acid]
